This note sets out measurements from patent US12495798B2, “Nicotinamide compound and herbicidal composition comprising compound” (KOREA RESEARCH INSTITUTE OF CHEMICAL TECHNOLOGY, priority 2019, dated 2025).

Holding throughout (format): in vivo
One data set deals with cocklebur. The experiment in a line: Herbicidal activity test against upland field weeds (foliar treatment test). The note with it: Xanthium strumarium, 50 g ai/ha, scale 0-100. The gist of the method: (§1)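 Visual 0–100 control ratings relative to untreated plants, taken 14 (or 21) days after spraying foliage at 50 or 75 g a.i./ha. Spray solution: 50% acetone with 0.1% Tween-20; plants kept in greenhouse at 30±5 °C, 14 h light/10 h dark.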

The next data set concerns velvetleaf. The description is as above. The note with it: Abutilon theophrasti, 50 g ai/ha, scale 0-100, read-out: Foliar treatment herbicidal activity, velvet leaf. An outline of the steps: as §1
A further data set deals with sorghum. The description is as above. The settings on record: Sorghum, 50 g ai/ha, scale 0-100. The gist of the method:
as §1

The test system of a further data set is quack grass. The data set is described as above. Details: key to Foliar treatment herbicidal activity, quack grass: 0 (no control); 100 (complete control). The settings on record: 50 g ai/ha, scale 0-100. The gist of the method: as §1
The test system of a further data set is wheat. The experiment in a line: Phytotoxicity test for upland field crops (foliar treatment test). More on the design: key: 0 (no harm); 9 (complete withered). An outline of the steps: (§2)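 Spray-booth foliar treatment of greenhouse-grown crops at 19˜300 g a.i./ha. Visual crop injury was scored 0–9 against untreated plants at 7 and 14 days.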
For the next data set, the system named is corn. The data set is described as above. More on the design: key: 0 (no harm); 9 (complete withered). The gist of the method: as §2
The subject of another data set is soybean. Described as above. Details: key: 0 (no harm); 9 (complete withered). The gist of the method: as §2
Another data set has as its system cotton. The data set is described as above. More on the design: key: 0 (no harm); 9 (complete withered). An outline of the steps: as §2
The test system of the next data set is rice. The data set is described as above. Details: key: 0 (no harm); 9 (complete withered). An outline of the steps:
as §2

The mark [1] stands for this setting: 50 g ai/ha, Wheat (7 days after treatment).
Setting [2] is: 50 g ai/ha, Wheat (14 days after treatment).
Where [3] appears, read: 100 g ai/ha, Wheat (7 days after treatment).
Setting [4] is: 100 g ai/ha, Wheat (14 days after treatment).
Setting [5] is: 50 g ai/ha, Corn (7 days after treatment).
Where [6] appears, read: 50 g ai/ha, Corn (14 days after treatment).
Setting [7] is: 100 g ai/ha, Corn (7 days after treatment).
The mark [8] stands for this setting: 100 g ai/ha, Corn (14 days after treatment).
[9] abbreviates: 50 g ai/ha, Soybean (7 days after treatment).
[10] abbreviates: 50 g ai/ha, Soybean (14 days after treatment).
The mark [11] stands for this setting: 100 g ai/ha, Soybean (7 days after treatment).
Where [12] appears, read: 100 g ai/ha, Soybean (14 days after treatment).
[13] abbreviates: 50 g ai/ha, Cotton (7 days after treatment).
Where [14] appears, read: 50 g ai/ha, Cotton (14 days after treatment).
The mark [15] stands for this setting: 100 g ai/ha, Cotton (7 days after treatment).
Where [16] appears, read: 100 g ai/ha, Cotton (14 days after treatment).
The mark [17] stands for this setting: 50 g ai/ha, Rice (7 days after treatment).
Setting [18] is: 50 g ai/ha, Rice (14 days after treatment).
Setting [19] is: 100 g ai/ha, Rice (7 days after treatment).
Setting [20] is: 100 g ai/ha, Rice (14 days after treatment).

For `Cn1nnc(CSCc2nc(C(F)(F)F)ccc2C(=O)N(c2nnnn2C)S(C)(=O)=O)n1` [Compound No. 2-110, N-(1-methyl-1H-tetrazol-5-yl)-2-((((2-methyl-2H-tetrazol-5-yl)methyl)thio)methyl)-N-(methylsulfonyl)-6-(trifluoromethyl)nicotinamide], the pest or weed control at 50 g/ha in the data set on cocklebur turned out to be 95%; in the data set on velvetleaf, 80%. The same compound returned a plant injury at 50 g/ha in the data set with sorghum of 20%. In addition, the “Foliar treatment herbicidal activity, quack grass” value in the data set on quack grass is listed as 0. Moreover, the “Foliar treatment phytotoxicity, Wheat” value with wheat (setting [1]), in the data set with wheat (setting [2]), in the data set with wheat (setting [3]) and in the data set on wheat (setting [4]) was 0 in each case. Further, the “Foliar treatment phytotoxicity, Corn” value in the data set on corn (setting [5]), in the data set with corn (setting [6]), with corn (setting [7]) and in the data set with corn (setting [8]) was 0 in each case.
Consider `CON(Cc1nnn(C)n1)Cc1nc(C(F)(F)F)ccc1C(=O)Nc1nnnn1C` [Compound No. 2-97, 2-((methoxy((2-methyl-2H-tetrazol-5-yl)methyl)amino)methyl)-N-(1-methyl-1H-tetrazol-5-yl)-6-(trifluoromethyl)nicotinamide], for which the pest or weed control at 50 g/ha in the data set with cocklebur and in the data set on velvetleaf was 95% throughout. Also, the plant injury at 50 g/ha in the data set on sorghum was 50%. Besides, the “Foliar treatment herbicidal activity, quack grass” value with quack grass was 0. Also, the “Foliar treatment phytotoxicity, Wheat” value with wheat (setting [1]), in the data set with wheat (setting [2]), with wheat (setting [3]) and with wheat (setting [4]) was 0 in each case. For the same compound, the “Foliar treatment phytotoxicity, Soybean” value with soybean (setting [9]) is listed as 5; in the data set on soybean (setting [10]) it was 6; in the data set on soybean (setting [11]), 7; with soybean (setting [12]), 9. The “Foliar treatment phytotoxicity, Cotton” value came out at 5 in the data set on cotton (setting [13]), 9 in the data set on cotton (setting [14]), 6 with cotton (setting [15]) and 9 in the data set with cotton (setting [16]). For the same compound, the “Foliar treatment phytotoxicity, Corn” value with corn (setting [5]) was 0; in the data set with corn (setting [6]) it was 0; in the data set with corn (setting [7]), 2; with corn (setting [8]), 1. Besides, the “Foliar treatment phytotoxicity, Rice” value stood at 6 with rice (setting [17]), 8 with rice (setting [18]), 6 in the data set with rice (setting [19]) and 9 in the data set on rice (setting [20]).
Take `Cc1nc(COCc2nc(C(F)(F)F)ccc2C(=O)Nc2nnnn2C)nn1C` [Compound No. 2-116, 2-(((1,5-dimethyl-1H-1,2,4-triazol-3-yl)methoxy)methyl)-N-(1-methyl-1H-tetrazol-5-yl)-6-(trifluoromethyl)nicotinamide]: the pest or weed control at 50 g/ha in the data set with cocklebur was determined as 98%; in the data set on velvetleaf it was 90%. In the data set with sorghum, this compound displayed a plant injury at 50 g/ha of 40%. The “Foliar treatment herbicidal activity, quack grass” value in the data set with quack grass was determined as 0. In addition, the “Foliar treatment phytotoxicity, Wheat” value in the data set with wheat (setting [1]), with wheat (setting [2]), in the data set on wheat (setting [3]) and in the data set on wheat (setting [4]) was 0 each time. Moreover, the “Foliar treatment phytotoxicity, Soybean” value in the data set with soybean (setting [9]) worked out at 2; with soybean (setting [10]) it was 3; with soybean (setting [11]) it was 3; with soybean (setting [12]) it was 5. The “Foliar treatment phytotoxicity, Cotton” value in the data set with cotton (setting [13]) is 2; with cotton (setting [14]) it was 1; in the data set with cotton (setting [15]), 3; in the data set with cotton (setting [16]), 2. In addition, the “Foliar treatment phytotoxicity, Corn” value in the data set with corn (setting [5]) is 1; in the data set with corn (setting [6]), 0; in the data set with corn (setting [7]), 2; in the data set with corn (setting [8]), 2. Moreover, the “Foliar treatment phytotoxicity, Rice” value is reported as 4 in the data set on rice (setting [17]), 5 in the data set on rice (setting [18]), 4 with rice (setting [19]) and 5 in the data set with rice (setting [20]).
With `Cn1nc(COCc2nc(C(F)(F)F)ccc2C(=O)Nc2nnnn2C)nc1Br` [Compound No. 2-136, 2-(((5-bromo-1-methyl-1H-1,2,4-triazol-3-yl)methoxy)methyl)-N-(1-methyl-1H-tetrazol-5-yl)-6-(trifluoromethyl)nicotinamide], the pest or weed control at 50 g/ha in the data set on cocklebur is 95%; in the data set with velvetleaf, 40%. In addition, the plant injury at 50 g/ha with sorghum amounted to 20%. The “Foliar treatment herbicidal activity, quack grass” value with quack grass is recorded as 0. The “Foliar treatment phytotoxicity, Wheat” value in the data set on wheat (setting [1]), with wheat (setting [2]), in the data set with wheat (setting [3]) and with wheat (setting [4]) was 0 in each case. Besides, the “Foliar treatment phytotoxicity, Soybean” value in the data set with soybean (setting [9]) was 4; with soybean (setting [10]), 6; with soybean (setting [11]), 4; in the data set with soybean (setting [12]) it was 6. Further, the “Foliar treatment phytotoxicity, Cotton” value with cotton (setting [13]) amounted to 3; in the data set with cotton (setting [14]), 6; in the data set on cotton (setting [15]), 3; with cotton (setting [16]) it was 8. The “Foliar treatment phytotoxicity, Corn” value in the data set with corn (setting [5]) was 0; in the data set with corn (setting [6]), 0; with corn (setting [7]), 2; in the data set with corn (setting [8]) it was 3. For the same compound, the “Foliar treatment phytotoxicity, Rice” value with rice (setting [17]) is on record as 4; in the data set with rice (setting [18]) it was 6; in the data set on rice (setting [19]), 5; in the data set on rice (setting [20]) it was 7.
As for `Cn1nc(COCc2nc(C(F)(F)F)ccc2C(=O)Nc2nnnn2C)nc1C#N` [Compound No. 2-134, 2-(((5-cyano-1-methyl-1H-1,2,4-triazol-3-yl)methoxy)methyl)-N-(1-methyl-1H-tetrazol-5-yl)-6-(trifluoromethyl)nicotinamide], the pest or weed control at 50 g/ha worked out at 50% in the data set with cocklebur, 60% in the data set on velvetleaf and 10% with quack grass. In addition, in the data set with sorghum, the plant injury at 50 g/ha turned out to be 10%. For the same compound, the “Foliar treatment phytotoxicity, Wheat” value in the data set on wheat (setting [1]), with wheat (setting [2]), with wheat (setting [3]) and in the data set on wheat (setting [4]) was 0 in each case. For the same compound, the “Foliar treatment phytotoxicity, Soybean” value is given as 4 in the data set with soybean (setting [9]), 6 in the data set on soybean (setting [10]), 4 with soybean (setting [11]) and 8 in the data set on soybean (setting [12]). For the same compound, the “Foliar treatment phytotoxicity, Cotton” value with cotton (setting [13]) worked out at 3; in the data set with cotton (setting [14]) it was 2; with cotton (setting [15]), 3; in the data set with cotton (setting [16]), 8. The “Foliar treatment phytotoxicity, Corn” value in the data set with corn (setting [5]), in the data set with corn (setting [6]), in the data set on corn (setting [7]) and in the data set on corn (setting [8]) was 0 in each case. In addition, the “Foliar treatment phytotoxicity, Rice” value in the data set on rice (setting [17]) was found to be 3; in the data set on rice (setting [18]) it was 6; in the data set with rice (setting [19]) it was 3; in the data set with rice (setting [20]), 7.
